Results on one molecule are retold here after patent US20190292246A1, “COMBINATION THERAPY OF A CELL BASED THERAPY AND A MICROGLIA IMHIBITOR” (JUNO THERAPEUTICS, INC., priority 2016, published 2019).

This test can be described thus: Non-human primate combination therapy: PLX3397, CD20 CAR T cells and cyclophosphamide preconditioning. The following applies: PLX3397 40 mg/kg twice daily from 30 days before to 21 days after cells; Rhesus macaques. It counts as in vivo. The method, then: Animal subjects of the non-human primate (NHP), Macaca mulatta, which in aspects closely recapitulates the human immune system are administered cell therapy (T cells expressing a CAR targeting CD20), following administration of an agent to ameliorate toxicity. Thirty days prior to the initiation of cell therapy, T cells are isolated from peripheral blood of Rhesus macaques (n=3) and engineered via transduction with a viral vector encoding a CD20 chimeric antigen receptor (CAR), which is a tumor-associated or tumor-specific antigen, and optionally a detectable marker, such as GFP. […]
After preconditioning treatment, subjects receive a first dose of CAR-expressing cells by infusion that is less than or equal to about 1×10^7 cells/kg body weight at day 0. […] Optionally, at seven days after the administration of the of cells, the CAR-expressing cells are detected by flow cytometry and quantitative polymerase chain reaction (qPCR) to measure in vivo proliferation and persistence of the administered cells and B cell aplasia. […] Recipient animals are monitored for clinical signs and symptoms of one or more toxic outcomes or toxicities such as CRS and neurotoxicity, and data are collected longitudinally to determine CAR T cell expansion and persistence, B cell aplasia, as well as clinical labs of CRS and cytokine levels. […]

Take `FC(F)(F)c1ccc(CNc2ccc(Cc3c[nH]c4ncc(Cl)cc34)cn2)cn1` [PLX3397, 5-((5-chloro-1H-pyrrolo[2,3-b]pyridin-3-yl)methyl)-N-((6-(trifluoromethyl)pyridin-3-yl)methyl)pyridin-2-amine]: the “symptoms of toxicity (CRS, neurotoxicity) after CAR T cell therapy” value is on record as “reduced or prevented”.
